Data on seven molecules can be found in patent US4933359A, “4(5)-substituted imidazole derivatives as α2 -adrenergic receptor blockers” (Farmos-Yhtyma Oy, priority 1986, dated 1990).

In test [1] the target is T1, α2-receptors (mouse vas deferens) (Mus musculus, UniProt Q01338).
T1 construct: isolated, electrically stimulated mouse vas deferens preparation; from tissue; host or cells: mouse vas deferens
T1 sequence (Q01338 1-465): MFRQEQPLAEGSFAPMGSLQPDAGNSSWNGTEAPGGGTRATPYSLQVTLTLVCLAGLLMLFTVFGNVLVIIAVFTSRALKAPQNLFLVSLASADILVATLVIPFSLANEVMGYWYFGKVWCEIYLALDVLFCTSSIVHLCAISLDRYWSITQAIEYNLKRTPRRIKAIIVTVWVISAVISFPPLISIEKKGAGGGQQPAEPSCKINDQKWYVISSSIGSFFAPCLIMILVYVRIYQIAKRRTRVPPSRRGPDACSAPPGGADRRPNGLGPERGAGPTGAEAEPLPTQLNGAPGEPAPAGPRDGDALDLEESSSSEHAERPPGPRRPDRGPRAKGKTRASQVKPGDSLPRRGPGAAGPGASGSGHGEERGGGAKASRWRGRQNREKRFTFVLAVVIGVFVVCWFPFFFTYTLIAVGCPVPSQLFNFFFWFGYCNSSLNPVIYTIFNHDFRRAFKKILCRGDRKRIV
The experiment in a line: α2-antagonism in vitro, isolated electrically stimulated mouse vas deferens (pA2 vs detomidine). As to conditions: antagonist given prior to agonist detomidine. It is filed as cell-based. The method, then:
The α2 -antagonism of these compounds was determined in vitro using the isolated, electrically stimulated mouse vas deferens preparation (Marshall et al., Br. J. Pharmac. 62, 147, 151, 1978). In this model, an α2 -agonist (detomidine) blocks electrically stimulated muscular contractions and the effect of the α2 -antagonist is seen by administering it prior to the agonist and by determining its pA2 value.
Compound mouse vas deferens

The target of test [2] is T2, α2-receptors of the central nervous system (Rattus norvegicus, UniProt P22909).
T2 construct: from tissue; host or cells: living anaesthetized rat, central nervous system
T2 sequence (P22909 1-465): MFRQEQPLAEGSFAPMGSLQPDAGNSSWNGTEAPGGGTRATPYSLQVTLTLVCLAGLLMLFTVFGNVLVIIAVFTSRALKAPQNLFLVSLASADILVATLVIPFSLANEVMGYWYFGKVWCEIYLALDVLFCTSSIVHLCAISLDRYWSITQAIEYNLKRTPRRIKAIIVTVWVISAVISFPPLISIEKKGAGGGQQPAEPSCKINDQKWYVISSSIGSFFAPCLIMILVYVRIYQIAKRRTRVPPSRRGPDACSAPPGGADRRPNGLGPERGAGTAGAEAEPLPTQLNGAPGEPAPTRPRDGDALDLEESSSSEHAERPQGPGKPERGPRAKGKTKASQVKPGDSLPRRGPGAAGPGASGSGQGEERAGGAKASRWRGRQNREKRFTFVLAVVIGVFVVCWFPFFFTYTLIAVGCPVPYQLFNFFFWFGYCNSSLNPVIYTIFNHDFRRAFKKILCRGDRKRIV
The test can be described thus: central α2-blocking effect in vivo: reversal of detomidine-induced mydriasis in anaesthetized rat. Conditions: iv, standard dose of detomidine i.v., then increasing i.v. doses of antagonist, read-out: ED50, dose producing a 50 percent reversal of detomidine-induced mydriasis. On the procedure:
The central α2 -blocking effect of the compounds of the invention in vivo was studied. It is known that in the rat α2 -agonists induce dilation of the pupil (mydriasis) and that this effect is transmitted via α2 -receptors of the central nervous system. In an anaesthetized rat, a standard dose of detomidine was administered intravenously. Thereafter increasing doses of the antagonist under test were injected intravenously and the reversal of detomidine-induced mydriasis was observed. The ED50 value of the antagonist, i.e. the dose producing a 50 percent reversal, was determined.

For the next test, the system named is α2-receptors. Conditions: Virtanen et al., 1983; cited from earlier work.

Broadly, the Kb is the affinity of an antagonist, worked out from how it opposes an agonist. The molecule `CC(C)(O)C1(c2cnc[nH]2)Cc2ccccc2C1` [Compound I, 2-[2,3-dihydro-2-[imidazol-4(5)-yl]-1H-inden-2-yl]-2-propanol] gave a Kb in test [1] of 3980 nM.

In test [1], `C=C(C)C1(c2cnc[nH]2)Cc2ccccc2C1` [Compound II, 4(5)-(2,3-dihydro-2-isopropenyl-1H-inden-2-yl)imidazole] gave a Kb of 100 nM.

In test [1], `CC(C)C1(c2cnc[nH]2)Cc2ccccc2C1` [Compound III, 4(5)-(2,3-dihydro-2-isopropyl-1H-inden-2-yl)imidazole] showed an antagonist dissociation constant (Kb) of 398 nM.

For the molecule `C=CC1(c2cnc[nH]2)Cc2ccccc2C1` [Compound IV, 4(5)-(2,3-dihydro-2-vinyl-1H-inden-2-yl)imidazole], the Kb in test [1] was 25.1 nM.

As a reminder, the ED50 is the midpoint of the dose-response relation. Regarding `C=C1c2ccccc2CC1(C)c1cnc[nH]1` (stereo not shown) [Compound V, 4(5)-(2,3-dihydro-2-methyl-1-methylene-1H-inden-2-yl)-imidazole], the ED50 in test [2] is 0.03 mg/kg.

With `CC=C1c2ccccc2CC1(C)c1cnc[nH]1` (stereo not shown) [Compound VI, 4(5)-(2,3-dihydro-1-ethylidene-2-methyl-1H-inden-2-yl)-imidazole], the ED50 in test [2] was determined as 0.001 mg/kg.

With `Cc1cccc(Cc2c[nH]cn2)c1C` [detomidine], in the test with α2-receptors, the “α2-receptor stimulation responsible for primary pharmacodynamic effects, e.g. sedation (in words)” value was “ability to stimulate α2 -receptors”.
